# Test results published in US6821988B2, “3-cyanoquinolines as inhibitors of EGF-R and HER2 kinases” (Wyeth Holdings Corporation, priority 2001, dated 2004).
# Where “and” joins values, the source holds several entries; their conditions need not be identical. Equal values may be shown once.
# Key:
# [1] = system: 3T3 (murine fiboblasts); experiment: Inhibition of cell growth, sulforhodamine B assay, 3T3; format: cell-based; conditions: 3T3, 2 days; for IC50: Mus musculus, 48 h, read-out: Inhibition of Cancer Cell Growth in vitro IC50, 3T3
# Procedure: (§1) […], A431 (epidermoid carcinoma), SKBR3 (breast carcinoma), SW620 (colon carcinoma), and MDA-MB435 (breast carcinoma), BT474 (breast carcinoma), and two murine lines, 3T3 (murine fiboblasts) and HER2-3T3 (murine fiboblasts transfected with human HER2) were used for cell proliferation assays. Cells were maintained in RPMI -1640 medium supplemented with 5% fetal bovine serum. Cells were plated in 96-well plates at the densities of 2.5×10^4/ml for 3T3 and 3T3/HER2 and 5.0×10^4/ml for the rest of the cell lines. On the next day, compounds were dosed at 0.5, 5, 50, 500, and 5000 ng/ml and cultured for 2 days. At the end of incubation, cell survival was determined by the sulforhodamine B assay as previously described (Skehan, P; Stornet, R.; Scudiero, D.; Monks, A.; McMahon, J.; Vistica D., Warren, J.; Bokbosch, H.; Kenny, S.; Boyd, M. New Colorimetric Cytotoxic Assay for Anticancer-Drug Screening. J. Natl. Cancer Inst. 1990, 82, 1107-1112). The IC50 values (the concentration needed to inhibit cell growth by 50%) were obtained from the growth curves and are shown below in Table 2 where the results of multiple determinations are included.
# [2] = system: BT474 (breast carcinoma); experiment: Inhibition of cancer cell growth, sulforhodamine B assay, BT474; format: cell-based; conditions: Homo sapiens, BT-474, 48 h; BT474, 2 days; read-out: Inhibition of Cancer Cell Growth in vitro IC50, BT474
# Procedure: as §1
# [3] = system: HER2-3T3 (murine fiboblasts transfected with human HER2); experiment: Inhibition of cell growth, sulforhodamine B assay, HER2-3T3; format: cell-based; conditions: HER2-3T3, 2 days; for IC50: Mus musculus, 48 h, read-out: Inhibition of Cancer Cell Growth in vitro IC50, HER2-3T3
# Procedure: as §1
# [4] = biological target: T1, human HER2 cytoplasmic domain (HER2-CD, amino acid 676-1255) (Homo sapiens, UniProt P04626); experiment: Inhibition of HER2 kinase autophosphorylation, recombinant enzyme, DELFIA/time-resolved fluorometry; format: biochemical; conditions: for inhibition at 2 µg/mL: read-out: HER2 % Inhibition at 2 μg/mL; for IC50: recombinant HER2 autophosphorylation
# T1 construct: human HER2 cytoplasmic domain (HER2-CD, amino acid 676-1255); made in house; host or cells: Sf-9 insect cells, baculovirus (pBlueBacHis2B)
# T1 sequence (P04626 676-1255): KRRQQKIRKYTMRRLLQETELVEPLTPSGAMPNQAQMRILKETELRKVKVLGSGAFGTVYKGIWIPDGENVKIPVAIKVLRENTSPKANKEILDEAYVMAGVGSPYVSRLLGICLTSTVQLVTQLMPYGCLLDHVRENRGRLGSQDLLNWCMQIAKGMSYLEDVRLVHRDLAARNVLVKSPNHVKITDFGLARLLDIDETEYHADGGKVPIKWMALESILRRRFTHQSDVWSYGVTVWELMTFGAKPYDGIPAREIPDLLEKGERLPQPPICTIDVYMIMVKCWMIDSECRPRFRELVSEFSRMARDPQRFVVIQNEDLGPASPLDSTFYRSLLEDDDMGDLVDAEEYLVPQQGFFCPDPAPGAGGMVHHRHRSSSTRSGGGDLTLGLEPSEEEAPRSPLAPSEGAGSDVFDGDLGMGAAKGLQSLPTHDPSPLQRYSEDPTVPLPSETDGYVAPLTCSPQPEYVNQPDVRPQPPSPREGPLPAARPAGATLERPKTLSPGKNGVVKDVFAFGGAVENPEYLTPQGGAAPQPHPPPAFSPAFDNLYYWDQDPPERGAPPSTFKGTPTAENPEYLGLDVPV
# Procedure: (§2) A 1.7 kb cDNA encoding human HER2 cytoplasmic domain (HER2-CD, amino acid 676-1255) and 1.6 kb cDNA for EGFR cytoplasmic domain (EGFR-CD, amino acid 645-1186) were cloned into baculoviral expression vectors, pBlueBacHis2B (Invitrogen) and pFASTBacHTc (GIBCO), separately. A sequence encoding (His)6 is located at the 5′ end upstream to HER2 and EGFR sequences. Sf-9 cells were infected at moi=10 for 3 days for protein expression. Sf-9 cell pellets were solubilized on ice in buffer containing 50 mM HEPES, pH 7.4, 10 mM NaCl, 1% Triton, 10 μM ammonium molybdate, 100 μM sodium vanadate, 10 μg/ml aprotinin, 10 μg/ml leupeptin, 10 μg/ml pepstatin, and 16 ug/ml benzamidine HCl for 20 min followed by 20 min centrifugation. Crude extract supernatant was passed through equilibrated Ni-NTA superflow packed column (Qiagen, Valencia, Calif.) and wash with 10 mM, and 100 mM imidazole to remove unspecific binding. Histidine-tagged proteins were eluted with 250 mM and 500 mM imidazole and dialyzed against 50 mM NaCl, 20 mM HEPES, 10% glycerol and 1 μg/ml each of aprotinin, leupeptin and pepstatin for 2 h. All the purification procedure was performed at 4° C. or on ice. Purified materials were subjected for electrophoresis followed by Coommassie blue stain to determine the purity of the preparation and Western blot for the identity of protein. Enzymes were aliquoted and stored at −80° C.
# (§3) Inhibition of EGFR and HER2 kinase autophosphorylation was measured by a DELFIA/time-resolved fluorometry assay. Compounds were dissolved in 100% DMSO and diluted to the appropriate concentrations with 25 mM HEPES, pH 7.4. In each well, 10 μl of compound was incubated with 10 μl of recombinant EGF-R or HER2 enzyme (1:80 dilution in 100 mM HEPES) for 10 min at room temperature. Then, 10 μl of 5×buffer (containing 20 mM HEPES, 2 mM MnCl2, 100 uM Na3VO4 and 1 mM DTT) and 20 μl of 0.1 mM ATP/50 mM MgCl2 was added for 1 h. Positive and negative controls were included in each plate by incubation of enzyme with or without ATP/MgCl2. At the end of incubation, liquid was aspirated and washed three times with wash buffer. 75 μl (400 ng).of europium-labeled anti-phosphotyrosine antibody was added to each well for another hour of incubation. After wash, enhancement solution was added and the signal was detected by Victor (Wallac Inc) with excitation at the wavelength of 340 nm and emission at the wavelength of 615 nm. All reagents were supplied by Wallac Inc (Wallac/Perkin-Elimer). Percentage of autophosphorylation inhibition by compound was calculated by […]. IC50 values were obtained from curves of percentage inhibition with 8 doses of compound.
# [5] = system: A431 (epidermoid carcinoma); experiment: Inhibition of cancer cell growth, sulforhodamine B assay, A431; format: cell-based, human; conditions: A431, 2 days; for IC50: Homo sapiens, A-431, 48 h, read-out: Inhibition of Cancer Cell Growth in vitro IC50, A431
# Procedure: as §1
# [6] = biological target: T2, EGFR cytoplasmic domain (EGFR-CD, amino acid 645-1186) (Homo sapiens, UniProt P00533); experiment: Inhibition of EGF-R kinase autophosphorylation, recombinant enzyme, DELFIA/time-resolved fluorometry; format: biochemical
# T2 construct: EGFR cytoplasmic domain (EGFR-CD, amino acid 645-1186); made in house; host or cells: Sf-9 insect cells, baculovirus (pFASTBacHTc)
# T2 sequence (P00533 669-1210): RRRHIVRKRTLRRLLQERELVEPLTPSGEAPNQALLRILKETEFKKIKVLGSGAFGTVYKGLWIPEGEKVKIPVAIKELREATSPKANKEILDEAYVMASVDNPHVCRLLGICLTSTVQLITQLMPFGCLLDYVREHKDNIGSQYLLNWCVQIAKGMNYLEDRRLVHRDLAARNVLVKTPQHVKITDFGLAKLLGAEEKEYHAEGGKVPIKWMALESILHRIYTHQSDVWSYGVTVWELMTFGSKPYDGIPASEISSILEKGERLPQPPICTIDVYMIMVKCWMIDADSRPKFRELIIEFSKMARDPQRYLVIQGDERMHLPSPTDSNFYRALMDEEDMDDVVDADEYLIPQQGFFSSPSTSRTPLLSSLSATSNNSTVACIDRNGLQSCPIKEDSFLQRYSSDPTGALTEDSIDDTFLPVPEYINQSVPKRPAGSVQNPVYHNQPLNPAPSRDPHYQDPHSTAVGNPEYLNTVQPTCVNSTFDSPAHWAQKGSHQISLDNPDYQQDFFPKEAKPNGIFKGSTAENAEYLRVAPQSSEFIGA
# Procedure: as §2, §3
# [7] = system: SKBR3 (breast carcinoma); experiment: Inhibition of cancer cell growth, sulforhodamine B assay, SKBR3; format: cell-based, human; conditions: SKBR3, 2 days; for IC50: Homo sapiens, SK-BR-3, 48 h, read-out: Inhibition of Cancer Cell Growth in vitro IC50, SKBR3
# Procedure: as §1
# [8] = system: SW620 (colon carcinoma); experiment: Inhibition of cancer cell growth, sulforhodamine B assay, SW620; format: cell-based, human; conditions: SW620, 2 days; for IC50: Homo sapiens, SW-620, 48 h, read-out: Inhibition of Cancer Cell Growth in vitro IC50, SW620
# Procedure: as §1
# [9] = system: MDA-MB435 (breast carcinoma); experiment: Inhibition of cancer cell growth, sulforhodamine B assay, MDA-MB435; format: cell-based, human; conditions: MDA-MB435, 2 days; for IC50: Homo sapiens, MDA-MB-435, 48 h, read-out: Inhibition of Cancer Cell Growth in vitro IC50, MDA-MB435
# Procedure: as §1
# [10] = system: Murine 3T3 fibroblasts, tranfected with Her2; experiment: In vivo inhibition of the growth of tumors of murine 3T3 fibroblasts transfected with HER2 in nude mice; design: species or system Athymic nu/nu female mice
# Procedure: Representative compounds of this invention (listed below) were evaluated in an in vivo standard pharmacological test procedure which measures their ability to inhibit tumor growth in nude mice. Murine 3T3 fibroblasts, tranfected with Her2 were grown in vitro. Athymic nu/nu female mice (Charles River, Wilmington, Mass.) were used in this in vivo standard pharmacological test procedure. A unit of 2×10^6 cells was injected SC into mice (day zero). Beginning on day 1, mice were treated IP every other day for a total of 11 days with a dose of 30 mg/kg/dose of the compound to be evaluated in 0.5% Methocel/0.4% Tween 80. Control animals received vehicle alone. […] Absolute tumor growth in mgs, (mean tumor mass on days 7, 14 and 21), is calculated for each treatment group. Statistical analysis (Student t-test) of Mean Tumor Mass compares treated verses control groups. A p-value of ≦0.05 indicates a statistically significant reduction in tumor growth of treated group compared to the vehicle control.
# The compound of Example 7 was evaluated for its ability to inhibit the growth of a murine fiboblast tumor that was transfected with human HER2 in vivo using the standard pharmacological test procedure described above.
# [11] = 30 mg/kg/dose IP on days 1, 3, 5, 7, 9 and 11, day 7
# [12] = 30 mg/kg/dose IP on days 1, 3, 5, 7, 9 and 11, day 14
Structure (SMILES),"Inhibition of Cancer Cell Growth in vitro IC50, 3T3 [1]",IC50 [1] [µg/mL],"Inhibition of Cancer Cell Growth in vitro IC50, HER2-3T3 [3]",IC50 [3] [µg/mL],IC50 [4],"Inhibition of Cancer Cell Growth in vitro IC50, A431 [5]",IC50 [5] [µg/mL],"Inhibition of Cancer Cell Growth in vitro IC50, SKBR3 [7] [µg/mL]",IC50 [8] [µg/mL],other results
COc1cc2ncc(C#N)c(Nc3ccc(Sc4nc(-c5ccccc5)cs4)c(Cl)c3)c2cc1NC(=O)CC(CN(C)C)N(C)C (centres unmarked) [Example 1],0.7 µg/mL and 0.57 µg/mL,0.76,0.04 µg/mL and 0.03 µg/mL,0.041,1.32 µM and 0.787 µM,0.37 µg/mL and 0.28 µg/mL,0.242,,,IC50 [2]: 0.02 µg/mL; inhibition at 2 µg/mL [4]: 63%; IC50 [6]: 4.76 µM
"COc1cc2ncc(C#N)c(Nc3ccc(F)c(Cl)c3)c2cc1NC(=O)CC(CN1CCC(O)C1)N1CCC(O)C1 (centres unmarked) [Example 2, N-[4-(3-Chloro-4-fluoro-phenylamino)-3-cyano-7-methoxy-quinolin-6-yl]-3,4-bis-(3-hydroxy-pyrrolidin-1-yl)-butyramide]",4.39 µg/mL,4.47,0.702 µg/mL,1.26,,0.466 µg/mL,0.572,0.128,2.95,"IC50 [7]: 0.129 µg/mL; melting point: 139 to 143 °C; Inhibition of Cancer Cell Growth in vitro IC50, SW620 [8]: 2.58 µg/mL; IC50 [9]: 4.05 µg/mL; Inhibition of Cancer Cell Growth in vitro IC50, MDA-MB435 [9]: 3.25 µg/mL; inhibition at 2 µg/mL [4]: 57%"
"CCOc1cc2ncc(C#N)c(Nc3ccc(F)c(Cl)c3)c2cc1NC(=O)CC(C)N(C)C (centres unmarked) [Example 3, N-[4-(3-Chloro-4-fluoroanilino)-3-cyano-7-ethoxy-6-quinolinyl]-3-(dimethylamino)butanamide]",,1.3,,1.7,10 µM,0.27 µg/mL,0.48,0.17,1.1,IC50 [7]: 0.11 µg/mL; EGF-R IC50 [6]: 0.33 µg/mL
"CCOc1cc2ncc(C#N)c(Nc3ccc(OCc4ccccc4)c(Cl)c3)c2cc1NC(=O)CC(CCCN(C)C)N(C)C (centres unmarked) [Example 5, N-{4-[4-(Benzyloxy)-3-chloroanilino]-3-cyano-7-ethoxy-6-quinolinyl}-3,6-bis(dimethylamino)hexanamide]",,0.42,,1.1,1.59 µM,0.73 µg/mL,0.87,,0.19,"IC50 [9]: 0.36 µg/mL; Inhibition of Cancer Cell Growth in vitro IC50, MDA-MB435 [9]: 0.49 µg/mL; EGF-R IC50 [6]: 1.0 µg/mL"
"CCOc1cc2ncc(C#N)c(Nc3ccc(OCc4ccccc4)c(Cl)c3)c2cc1NC(=O)CC(CN1CCCC1)N1CCCC1 (centres unmarked) [Example 7, N-{4-[4-(Benzyloxy)-3-chloroanilino]-3-cyano-7-ethoxy-6-quinolinyl}-3,4-di(1-pyrrolidinyl)butanamide]",0.37 µg/mL,0.35,0.014 µg/mL,0.017,0.0337 µM,,,0.0025,0.23,"inhibition of tumor growth (in words) ([10]; 30 mg/kg i.p.): significantly inhibited tumor growth; tumors in the control mice larger than tumors in treated mice (fold) ([10]; 30 mg/kg i.p., day 14): 8.5 times; % T/C Day 7 [10, 11]: 15%; Mean Tumor Weight Day 7 [10, 11]: 39 mg; % T/C Day 14 [10, 12]: 12%; Mean Tumor Weight Day 14 [10, 12]: 261 mg; Mean Tumor Weight Day 21 ([10]; 30 mg/kg/dose IP on days 1, 3, 5, 7, 9 and 11, day 21): 1849 mg; S/T = No. Survivors/No. on Day +28 post tumor cell implantation ([10]; 30 mg/kg/dose IP on days 1, 3, 5, 7, 9 and 11, day +28): 10/10; Inhibition of Cancer Cell Growth in vitro IC50, SW620 [8]: 0.28 µg/mL"
"CCOc1cc2ncc(C#N)c(Nc3ccc(F)c(Cl)c3)c2cc1NC(=O)CC(CN(C)C)SCC(NC(=O)CC[C@@H](N)C(=O)O)C(=O)NCC(=O)O (stereo partly drawn) [Example 8, (2R)-2-amino-5-({2-[(carboxymethyl)amino]-1-[({3-{[4-(3-chloro-4-fluoroanilino)-3-cyano-7-ethoxy-6-quinolinyl]amino}-1-[(dimethylamino)methyl]-3-oxopropyl}sulfanyl)methyl]-2-oxoethyl}amino)-5-oxopentanoic acid]",,> 5,,,0.854 µM,0.21 µg/mL,0.2,,> 5,IC50 [6]: 2.19 µM
"CCOc1cc2ncc(C#N)c(Nc3ccc(OCc4ccccc4)c(Cl)c3)c2cc1NC(=O)CC(CN(C)C)N(C)C (centres unmarked) [Example 9, N-{4-[4-(Benzyloxy)-3-chloroanilino]-3-cyano-7-ethoxy-6-quinolinyl}-3,4-bis(dimethylamino)butanamide]",,,,,,,,,,melting point: 102 to 104 °C
